Columns and labels:
[1] = molecular target: T1, humane rekombinante Typ II PLA2 (Homo sapiens, UniProt P14555); assay: In-vitro inhibition of PLA2 enzyme activity; format: biochemical; settings: for inhibition at 1 µg/mL / inhibition at 10 µg/mL / inhibition at 100 µg/mL: read-out: PLA2 in % (Hemmung der Enzymaktivität); for PLA2 in % (Hemmung der Enzymaktivität) / inhibition at 100 µg/mL: 100 µg/ml
T1 sequence (P14555 21-144): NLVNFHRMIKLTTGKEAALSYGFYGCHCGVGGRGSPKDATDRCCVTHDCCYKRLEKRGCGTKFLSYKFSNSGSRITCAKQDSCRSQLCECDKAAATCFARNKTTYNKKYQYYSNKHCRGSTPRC
Text: Als typischer Vertreter einer PLA2 wurde die humane rekombinante Typ-II-PLA2 (= synoviale PLA2) zur Testung eingesetzt.
Die Tabelle 1 enthält die prozentuale in-vitro Hemmung dieses Enzyms durch die Verbindung des Beispiels 1, einen Spiro-Oxetan-Vertreter. Das Enzym wird dosisabhängig bis zu 93 % inhibiert.

[2] = tested on: humanen Thrombozyten; assay: Inhibition of collagen-induced arachidonic acid (3H-AA) release from platelets; format: cell-based; settings: Homo sapiens, Platelet, read-out: AA in % (Hemmung der Collagen induzierten Arachidonsäurefreisetzung)
Text: Als weiterer Indikator einer PLA2-Inhibition gilt eine Hemmung der AA-Freisetzung aus Thrombozyten. Zu diesem Zweck werden die Thrombozyten mit ^3H-AA inkubiert. Diese zugegebene radioaktive Arachidonsäure baut sich in Membranphospholipide ein. Anschließend wird die thrombozytäre PLA2 über den Collagenrezeptor aktiviert und ^3H-AA so aus Phospholipen wieder ins Medium freigesetzt, wo sie quantifiziert werden kann.

Compound	inhibition at 1 µg/mL [1]	inhibition at 10 µg/mL [1]	PLA2 in % (Hemmung der Enzymaktivität) [1]	inhibition at 100 µg/mL [1]	inhibition at 1 µg/mL [2]	inhibition at 10 µg/mL [2]	inhibition at 100 µg/mL [2]
COc1ccc2c(c1)c(CC(=O)O)c(C)n2C(=O)c1ccc(Cl)cc1 [Indomethacin]	0%	10%	52%	52%	6%	18%	23%
O=C1C=CC2(C=C1)CC1(CCC(=O)O1)O2 (centres unmarked) [Bsp. 1, 1,6-Dioxadispiro[4.1.5.1]trideca-8,11-dien-2,10-dion]	11%	37%	93%	≤ 93%	42%	86%	100%
